Activity calls are given as the source filed them.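 How the source made its calls: active means compounds giving half or more protection of infected cells from virus-caused growth loss, again on retest; inactive means the rest.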 Where a SMILES comes first, the peptide text is derived from it. Bridges are numbered along the chain shown (N, C = ends). Roman numbers before positions name the chains, in order. [ ]: non-standard residue; d: D form. The star is where a group is joined. pGlu = O=C1CC[CH](C(=O)O)N1; Bz = O=C(c1ccccc1)*
Test system: CEM cells HIV-1 protection, formazan growth assay
Test: NCI AIDS Antiviral Assay
Settings: for IC50: measured here: growth of uninfected CEM cells
Method in brief: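 Five concentrations of each compound were applied to infected and uninfected human CEM cells. Protection from HIV-1 was judged from growth measured with a soluble formazan assay.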

Row | Structure (SMILES) | EC50 [µM] | IC50 [µM] | outcome
1 | CCCCCCCCCCCCCCCC(=O)Nc1ccn(C2CCC(COP(=O)(O)OCC3OC(n4ccc(NC(=O)CCCCCCCCCCCCCCC)nc4=O)CC3OP(=O)(O)OCC3OC(n4ccc(NC(=O)CCCCCCCCCCCCCCC)nc4=O)CS3)O2)c(=O)n1 (centres undefined) | 1.1 | 83.2 | 
2 | CC(C)N=c1cc2n(-c3ccc(Cl)cc3)c3ccccc3nc-2cc1Nc1ccc(Cl)cc1 | > 100 | 9.12 | 
3 | c1ccc(SSc2ccccn2)nc1 | > 200 | 5.13 | 
4 | CC(=O)OC(CC1(C)C(C)CCC23COC(=O)C2=CCCC31)C1=CC(=O)OC1O (centres undefined) | > 447 | > 447 | 
5 | O=C1/C(=C/c2ccc3c(c2)OCO3)SC2C=Nc3ccccc3N12 (centres undefined) | > 2.24 | > 2.24 | 
6 | Cc1cc(=O)c2c(O)cc(O)c(C3CCN(C)CC3O)c2o1 (centres undefined) | > 1020 | 17 | 
7 | Nc1nc(Cl)cc(NCC2(CO)CCC(O)C2)n1 (centres undefined) | > 200 | > 200 | 
8 | O=C(NC(CO)Cc1ccc(Oc2cc(CC(CO)NC(=O)OCc3ccccc3)ccc2OC(=O)OCc2ccccc2)cc1)OCc1ccccc1 (centres undefined) | > 200 | 20.9 | 
9 | c1ccc(COC2(OCc3ccccc3)CC3OC2C2NN=NC32)cc1 (centres undefined) | > 141 | 9.77 | 
10 | O=C(O/N=C1/CCCC/C1=C\c1ccccc1)c1ccc(Cl)c(Cl)c1 |  |  | inactive
11 | COC(=O)C(CSSCC(NC(=O)CNC(=O)c1ccccc1)C(=O)OC)NC(=O)CNC(=O)c1ccccc1 (stereo not drawn) (I: Bz-Gly-Cys-OMe / II: Bz-Gly-Cys-OMe; disulfide I:2-II:2; configuration not given here) | > 117 | 38.9 | 
12 | CCSCCCN(CCCSCC)CCCSCC | > 155 | > 155 | 
13 | Cc1c(C(c2[nH]c3ccccc3c2C)c2[nH]c3ccccc3c2C)[nH]c2ccccc12 | 0.0631 | 13.5 | 
14 | Cc1c2ccccc2nc(CSCc2ccccc2)[n+]1[O-] | > 200 | 162 | 
15 | COC(=O)c1c(C)cccc1C1CN=NC12Cc1ccc(C)cc1C2=O (centres undefined) | > 72.4 | 41.7 | 
16 | CSc1csc(-c2ccc(-c3ccc(-c4cc(SC)cs4)s3)s2)c1 | > 100 | > 100 | 
17 | COP(=O)(Cc1ccccc1)Cc1ccccc1 | > 200 | > 200 | 
18 | CC(C)CC(NC(=O)C(CO)NC(=O)C(CCCCN)NC(=O)C(CCCCN)NC(=O)C(NC(=O)CNC(=O)C(NC(=O)C(CO)NC(=O)C(NC(=O)C(NC(=O)C(CO)NC(=O)C(CC(N)=O)NC(=O)C1CCC(=O)N1)C(C)C)C(C)C)C(C)O)C(C)C)C(=O)NC(Cc1ccccc1)C(=O)NC(CCC(N)=O)C(=O)O (centres undefined) ([pGlu]NSVVSTGVKKSLFQ-OH; configuration not given here) | > 30.9 | > 30.9 | 
19 | Cc1cc2c(=O)c3ccccc3oc2c(C#N)c1C | > 20 | > 20 | 
20 | C1CCN2CC3CC(CN4CCCCC34)C2C1 (centres undefined) | > 759 | > 759 | 
21 | COc1cc(OC)c2c(=O)cc(-c3ccncc3)oc2c1 |  |  | inactive

Row | Structure (SMILES) | EC50 [µM] | IC50 [µM] | outcome
22 | CN=C(SC)N(C)c1nc(=[N+](C)C)ss1 |  |  | inactive
23 | O=C1CCCCC/C=C2/CC[C@H](Sc3ccccc3)[C@@H]12 | > 200 | 53.7 | 
24 | COc1cc(-c2cc(-c3cc(C)cc(Cl)c3O)nc3ncnc(N)c23)ccc1O | > 200 | 10.7 | 
25 | COC(=O)c1cc(C(=CC(=O)O)c2cc(Cl)c(OC)c(C(=O)OC)c2)cc(Cl)c1OC | > 200 | 95.5 | 
26 | CNC(=O)c1n[nH]n(Cc2ccccc2)c1=S | > 200 | > 200 | 
27 | O=C(O)C12C3C4C1C1C2C3C1(Br)C41OCCO1 (centres undefined) | > 832 | > 832 | 
28 | C=CC1CN2CCC1CC2C(=O)c1ccnc2ccccc12 (centres undefined) | > 200 | 97.7 | 
29 | Cc1cc(NS(=O)(=O)c2ccc(N=c3c4ccccc4n(Cc4ccccc4)c4ccccc34)cc2)no1 |  |  | inactive
30 | O=C(c1nc2ccc([N+](=O)[O-])cc2[nH]c1=O)C(O)c1ccc2c(c1)OCO2 (centres undefined) | > 676 | 245 | 
31 | CON1C(=O)C(c2cccs2)=C2SCC=C21 | > 170 | 4.27 | 
32 | CNC(=O)O/N=C(/C)c1cccc([N+](=O)[O-])c1 | > 200 | > 200 | 
33 | CN(C)C(=S)N1C(=S)N(c2ccccc2)C(=Nc2ccccc2)C1=Nc1ccccc1 | > 200 | 170 | 
34 | C[N+](C)(C)CCCC#CC[N+]1(C)CCc2ccccc2C1 (centres undefined) |  |  | inactive
35 | CCC/C=C(/Br)[Si](C)(C)C | > 427 | 372 | 
36 | COc1ccc(Nc2nc(NS(=O)(=O)c3cc(C)c(Cl)cc3S)n[nH]2)cc1 | 178 | 257 | 
37 | C[C@]12c3c4cc(NC(=O)C(=O)NCc5ccc(-c6ccccn6)nc5)cc3Oc3cc(NC(=O)C(=O)NCc5ccc(-c6ccccn6)nc5)cc(c31)OC1C=C(NC(=O)C(=O)NCc3ccc(-c5ccccn5)nc3)C=C(O4)C12 (some centres undefined) | > 100 | 21.4 | 
38 | CC1=C/C(=N\N(C)C)C(C(O)(C(F)(F)F)C(F)(F)F)C(C)(C)C1 (centres undefined) | > 200 | 102 | 
39 | CCOC(=O)C1(C)CCC(C(C(=O)O)C(=O)O)CC1=O (centres undefined) |  |  | inactive
40 | NC(=O)c1cc2ccc(O)c(O)c2cn1 | > 209 | 2.95 | 
41 | O=C(CC(=O)c1cccc2ccccc12)C(=O)Nc1ccc(Cl)cc1 |  |  | inactive
42 | O=C(Nc1ccc(C2=NCCN2)cc1)c1cc(C(=O)Nc2ccc(C3=NCCN3)cc2)ncn1 | 12.3 | 61.7 | 

Row | Structure (SMILES) | EC50 [µM] | IC50 [µM] | outcome
43 | COc1cccc(/C=C2\CCCCCC2=O)c1 | > 200 | 40.7 | 
44 | CC1(C)CCc2cc3c(cc2O1)OCCC3O (centres undefined) |  |  | inactive
45 | CCN(CC)c1nnc(CCCCCCCCc2nnc(N(CC)CC)o2)o1 | > 200 | > 200 | 
46 | CCN(CC)C(=O)N[C@@H](Cc1ccccc1)C(=O)NC | > 200 | > 200 | 
47 | Cc1cc(C)cc(N(C2=NCCS2)C2=NCCS2)c1 | > 200 | > 200 | 
48 | O=C(CC1C(=O)Nc2ccccc2S1=O)Nc1cccc(Cl)c1 (centres undefined) | > 20.9 | > 20.9 | 
49 | CC(NC(=O)C(N)CSSCC(N)C(=O)NC(C)C(=O)O)C(=O)O (stereo not drawn) (I: H-Cys-Ala-OH / II: H-Cys-Ala-OH; disulfide I:1-II:1; configuration not given here) | > 178 | > 178 | 
50 | O=[N+]([O-])c1ccc2c(c1)NP(=S)(Oc1ccccc1)N2 (centres undefined) | > 603 | 81.3 | 
51 | CCCCCCC(CCl)c1sc(-c2csc(CCNC(=O)OC(C)(C)C)n2)nc1C(=O)OC (centres undefined) | > 200 | > 200 | 
52 | CC(=O)O[C@H]1C=CC23OC(=O)[C@]1(C)[C@H]2[C@H](C(=O)O)C12CC(=O)[C@@](CO)(CC[C@H]13)C2 |  |  | inactive
53 | N#Cc1c2c(c(Nc3ccc(Cl)cc3)n3c1nc1ccccc13)CCCC2 | > 200 | 11.5 | 
54 | O=C(/C=C/c1ccccc1)CCN1CCCCC1 | > 200 | 10.2 | 
55 | CCc1cccc(C(C)C)c1C1C(=O)C(=O)N(c2nc3ccccc3s2)C(=O)C1=O |  |  | inactive
56 | CC1CCC23COC(=O)C2=CCCC3C1(C)CC/C(=C/CO)CO (centres undefined) |  |  | inactive
57 | CCCCNc1nc(C#N)c(N)s1 | > 1260 | 204 | 
58 | CC1(C)C2CC3OC3(C)C1C2 (centres undefined) | > 200 | > 200 | 
59 | CC(C)C12C=CC(C)(CC1)n1c(=O)c3cc4ccccc4cc3c(=O)n12 (centres undefined) | > 4.17 | > 4.17 | 
60 | O=C1CN(/C=C(\c2ccccc2)S(=O)Cc2ccccc2)C(=S)N1 (centres undefined) | > 200 | > 200 | 
61 | CN=C1Nc2ccc(Cl)cc2C(c2ccccc2)=NN1C | > 120 | 93.3 | 
62 | COc1cc(C(=O)N(C(=O)N2CCCCC2)c2ccccc2)cc(OC)c1OC | > 200 | > 200 | 
63 | O=C(Nc1cc2c(oc1=O)CCCCCC2)c1cnccn1 | > 50.1 | > 50.1 | 

Row | Structure (SMILES) | EC50 [µM] | IC50 [µM] | outcome
64 | CN(C)P(=O)(/C(N)=N/Nc1ccc([N+](=O)[O-])cc1)N(C)C | > 158 | 155 | 
65 | N#Cc1nc(-c2ccccn2)oc1N | > 200 | > 200 | 
66 | O=C1NC(=S)NNC12c1ccccc1-c1ccccc12 | > 200 | 33.9 | 
67 | CCOC(=O)C(=CN1CCNC1=S)C(=O)OCC | > 200 | > 200 | 
68 | CC1=C(C)SC(=C2Sc3c(n(C)c(=O)[nH]c3=O)S2)S1 | > 200 | > 200 | 
69 | Cc1cc(C(=O)CSC(=S)SC(C)(C)C)ccc1Cl | > 30.2 | > 30.2 | 
70 | COc1cc(/C=C2/N=C(c3ccccc3)N(C3=NNC4(C(=O)N3)c3ccccc3-c3ccccc34)NC2=O)ccc1O | > 100 | 75.9 | 
71 | CC(C)CCC[C@@H](C)[C@H]1CC[C@H]2[C@@H]3CC[C@H]4C[C@@H](CCCC(c5ccc(O)c(C(=O)O)c5)c5ccc(O)c(C(=O)O)c5)CC[C@]4(C)[C@H]3CC[C@]12C | 64.6 | > 100 | 
72 | CCOC(=O)C(C(=N)C(=N)C(C(=O)O)C(=O)OCC)C(=O)O (centres undefined) |  |  | inactive
73 | CC(C)=C1C(=O)N(c2ccccc2)N(c2ccccc2)C1=O | > 200 | 79.4 | 
74 | Oc1[nH]c(=S)sc1/C=C1\C=Nc2ccccc21 | > 501 | 195 | 
75 | CC1(C)CC(=O)C2=C(C1)OC1=C(C(=O)CC(C)(C)C1)C2CC(c1ccccc1)c1ccc(O)c(O)c1O (centres undefined) | > 200 | 8.51 | 
76 | S=C(NCCc1ccccn1)N/N=C(\c1ccccc1)c1ccccn1 | > 0.2 | 0.0676 | 
77 | O=c1n(-c2ccccc2)c(=O)n2c(-c3ccccc3)c(-c3ccccc3)n12 | > 200 | 30.9 | 
78 | Cc1ccc2c(c1)SC(c1cc3c(cc1Br)OCO3)S2 (centres undefined) | > 50.1 | > 50.1 | 
79 | O=c1[nH]c(=O)n(C2CC(O)C(CO)O2)cc1C#Cc1cc(F)cc(F)c1 (centres undefined) | > 692 | 355 | 
80 | Cc1ccc(C)n1-c1ccccc1C1C=CN(C(=O)OC(C)(C)C)C=C1 | > 200 | 30.2 | 
81 | CC(C)(C)c1ccc(N=O)cc1 | > 20 | 2.45 | 
82 | CCOc1ccc(NC(=O)C2=C(C)NC(C)=C(C(=O)Nc3ccc(OCC)cc3)C2c2ccc([N+](=O)[O-])cc2)cc1 | > 12.9 | > 12.9 | 
83 | O=C(Nc1cccc(Cc2cccc(NC(=O)c3ccccc3)c2)c1)c1ccccc1 | > 9.33 | > 9.33 | 

Source: PubChem BioAssay AID179 (DTP/NCI, 2004)
